According to patent USRE47739E1, “2-(pyridin-2-ylamino)-pyrido[2,3-D]pyrimidin-7-ones” (Warner-Lambert Company LLC, priority 2002, dated 2019):
Where a name gives a salt, the structure may show the parent alone.

Experiments:
Cdk4/Cyclin D = Cdk4/Cyclin D (Homo sapiens, UniProt P11802); assay: Assay for Inhibition of Cdk4/Cyclin D; type: biochemical; conditions: 25 μM ATP, retinoblastoma protein substrate, 25° C., 15 minutes
Description: (§1) The assays were carried out as described below.
Assay for Inhibition of Cdk4/Cyclin D
The Cdk4 enzyme assay for IC50 determination and kinetic evaluation is performed as follows. 96-well filter plates (Millipore MADVN6550) are used. […] Buffer A containing excess EDTA was used to determine the level of background ^32P in the absence of enzyme activity. All components except the ATP are added to the wells, and the plate is placed on a plate mixer for 2 minutes. The reaction is started by adding [^32P]ATP, and the plate is incubated at 25° C. for 15 minutes. The reaction is terminated by addition of 0.1 mL 20% trichloroacetic acid (TCA). The plate is kept at 4° C. for at least 1 hour to allow the substrate to precipitate. The wells are then washed five times with 0.2 mL 10% TCA, and ^32P incorporation is determined with a beta plate counter (Wallac Inc., Gaithersburg, Md.).

[1] = biological target: FGF receptor (FGFr) tyrosine kinase (Homo sapiens, UniProt P11362); assay: Assay for Inhibition of FGFr; type: biochemical; conditions: 50 μM ATP, Poly (4:1) glutamate-tyrosine substrate, 25° C.
Sequence of FGF receptor (FGFr) tyrosine kinase (P11362 22-822): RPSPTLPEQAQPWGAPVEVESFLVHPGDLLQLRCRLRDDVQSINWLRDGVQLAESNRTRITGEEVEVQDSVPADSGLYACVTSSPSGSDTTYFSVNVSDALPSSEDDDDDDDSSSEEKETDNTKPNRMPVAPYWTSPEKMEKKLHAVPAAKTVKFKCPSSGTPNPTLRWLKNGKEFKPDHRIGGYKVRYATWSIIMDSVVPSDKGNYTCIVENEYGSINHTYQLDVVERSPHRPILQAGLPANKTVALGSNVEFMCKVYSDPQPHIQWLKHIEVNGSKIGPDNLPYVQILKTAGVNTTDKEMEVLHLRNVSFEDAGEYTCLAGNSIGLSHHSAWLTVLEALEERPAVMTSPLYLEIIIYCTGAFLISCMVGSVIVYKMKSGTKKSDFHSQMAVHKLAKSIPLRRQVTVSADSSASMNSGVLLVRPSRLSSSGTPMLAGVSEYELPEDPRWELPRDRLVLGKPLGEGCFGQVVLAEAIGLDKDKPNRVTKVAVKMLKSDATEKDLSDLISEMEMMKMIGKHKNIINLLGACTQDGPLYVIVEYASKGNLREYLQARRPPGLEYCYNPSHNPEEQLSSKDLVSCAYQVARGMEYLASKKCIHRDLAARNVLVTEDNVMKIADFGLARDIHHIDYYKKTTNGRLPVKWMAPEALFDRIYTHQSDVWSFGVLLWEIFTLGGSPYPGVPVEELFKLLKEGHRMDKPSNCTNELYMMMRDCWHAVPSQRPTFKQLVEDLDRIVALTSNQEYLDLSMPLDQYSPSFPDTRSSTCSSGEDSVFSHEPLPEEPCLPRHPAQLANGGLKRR
Description: as §1
Assay for Inhibition of FGFr
For FGF receptor (FGFr) tyrosine kinase assays 96-well plates (100 μL/incubation/well), and conditions are optimized to measure the incorporation of ^32P from [γ^32P]ATP into a glutamate-tyrosine co-polymer substrate. Briefly, to each well is added 82.5 μL incubation buffer B (25 mM Hepes (pH 7.0), 150 mM NaCl, 0.1% Triton X-100, 0.2 mM PMSF, 0.2 mM Na3VO4, 10 mM MnCl2) and 750 μg/mL Poly (4:1) glutamate-tyrosine followed by 2.5 μL of the test compound in buffer B and 5 μL of a 7.5 μg/μL FGFr solution to initiate the reaction. Following a 10-minute incubation at 25° C., […] [γ^32P]ATP (0.4 μCi plus 50 μM ATP) is added to each well, and samples are incubated for an additional 10 minutes at 25° C. The reaction is terminated by the addition of 100 μL 30% trichloroacetic acid (TCA) containing 20 mM sodium pyrophosphate and precipitation of material onto glass fiber mats (Wallac). […] Nonspecific activity is defined as radioactivity retained on the filters following incubation of samples with buffer alone (no enzyme). Specific enzymatic activity (enzyme plus buffer) is defined as total activity minus nonspecific activity.

Sequence of Cdk4/Cyclin D (P11802 whole entry, species assumed): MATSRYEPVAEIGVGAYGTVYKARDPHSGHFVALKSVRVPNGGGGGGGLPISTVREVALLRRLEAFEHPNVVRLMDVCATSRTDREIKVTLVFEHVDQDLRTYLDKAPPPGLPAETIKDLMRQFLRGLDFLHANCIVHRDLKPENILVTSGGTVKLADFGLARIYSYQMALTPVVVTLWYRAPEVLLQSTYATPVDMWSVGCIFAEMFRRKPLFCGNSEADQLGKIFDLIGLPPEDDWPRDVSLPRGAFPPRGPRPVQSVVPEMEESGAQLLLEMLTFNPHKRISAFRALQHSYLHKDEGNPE
Sequence of Cdk4/Cyclin D (P24385 whole entry partner, species assumed): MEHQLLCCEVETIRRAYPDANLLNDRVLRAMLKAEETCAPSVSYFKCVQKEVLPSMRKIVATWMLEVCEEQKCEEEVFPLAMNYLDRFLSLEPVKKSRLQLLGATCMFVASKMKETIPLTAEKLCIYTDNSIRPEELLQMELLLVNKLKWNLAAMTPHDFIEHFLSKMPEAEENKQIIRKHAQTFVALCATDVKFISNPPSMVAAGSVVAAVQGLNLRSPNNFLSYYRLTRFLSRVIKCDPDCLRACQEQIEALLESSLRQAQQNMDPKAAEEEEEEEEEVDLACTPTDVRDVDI

| Compound | IC50 (Cdk4/Cyclin D) [nM] | IC50 [1] [nM] |
| --- | --- | --- |
| CCOCCOc1cc2cnc(Nc3ccc(N4CCNCC4)cn3)nc2n(C2CCCC2)c1=O [Example 53, 8-Cyclopentyl-6-(2-ethoxy-ethoxy)-2-(5-piperazin-1-yl-pyridin-2-ylamino)-8H-pyrido[2,3-d]pyrimidin-7-one] | 36 | > 5000 |
| CC(=O)c1c(C)c2cnc(Nc3ccc(N4CCC(O)CC4)cn3)nc2n(C2CCCC2)c1=O [Example 77, 6-Acetyl-8-cyclopentyl-2-(4-hydroxy-3,4,5,6-tetrahydro-2H-[1,3′]bipyridinyl-6′-ylamino)-5-methyl-8H-pyrido[2,3-d]pyrimidin-7-one] | 19 | – |
| CC(=O)c1cc2cnc(Nc3ccc(N4CCNCC4)cn3)nc2n(C2CCCC2)c1=O [Example 33, 6-Acetyl-8-cyclopentyl-2-(5-piperazin-1-yl-pyridin-2-ylamino)-8H-pyrido[2.3-d]pyrimidin-7-one hydrochloride] | 123 | > 5000 |
| CC(=O)c1c(C)c2cnc(Nc3ccc(N4CC(C)OC(C)C4)cn3)nc2n(C2CCCC2)c1=O (stereo not drawn) [Example 130, 6-Acetyl-8-cyclopentyl-2-[5-(2,6-dimethyl-morpholin-4-yl)-pyridin-2-ylamino]-5-methyl-8H-pyrido[2,3-d]pyrimidin-7-one] | 30 | > 5000 |
| CC(C)COc1cc2cnc(Nc3ccc(N4CCNCC4)cn3)nc2n(C2CCCC2)c1=O [Example 22, 8-Cyclopentyl-6-isobutoxy-2-(5-piperazin-1-yl-pyridin-2-ylamino)-8H-pyrido[2.3-d]pyrimidin-7-one hydrochloride] | 1700 | > 5000 |
| CC(=O)c1c(C)c2cnc(Nc3ccc(N4CCNC(C)(C)C4)cn3)nc2n(C2CCCC2)c1=O [Example 90, 6-Acetyl-8-cyclopentyl-2-[5-(3,3-dimethyl-piperazin-1-yl)-pyridin-2-ylamino]-5-methyl-8H-pyrido[2,3-d]pyrimidin-7-one] | 21 | > 5000 |
| Cc1c(Br)c(=O)n(C2CCCC2)c2nc(Nc3ccc(N4CCCCC4)cn3)ncc12 [Example 103, 6-Bromo-8-cyclopentyl-5-methyl-2-(3,4,5,6-tetrahydro-2H-[1,3]bipyridinyl-6′-ylamino)-8H-pyrido[2,3-d]pyrimidin-7-one] | > 5000 | – |
| CC(=O)c1c(C)c2cnc(Nc3ccc(N4CCCNCC4)cn3)nc2n(C2CCCC2)c1=O [Example 81, 6-Acetyl-8-cyclopentyl-2-(5-[1,4]diazepan-1-yl-pyridin-2-ylamino)-5-methyl-8H-pyrido[2,3-d]pyrimidin-7-one] | 12 | > 5000 |
| COCCOCc1cc2cnc(Nc3ccc(N4CCNCC4)cn3)nc2n(C2CCCC2)c1=O [Example 112, 8-Cyclopentyl-6-(2-methoxy-ethoxymethyl)-2-(5-piperazin-1-yl-pyridin-2-ylamino)-8H-pyrido[2,3-d]pyrimidin-7-one] | 31 | > 5000 |
| Cc1c(Br)c(=O)n(C2CCCC2)c2nc(Nc3ccc(N4CCOCC4)cn3)ncc12 [Example 98, 6-Bromo-8-cyclopentyl-5-methyl-2-(5-morpholin-4-yl-pyridin-2-ylamino)-8H-pyrido[2,3-d]pyrimidin-7-one] | 1950 | > 5000 |
| NC(=O)c1ccc(Nc2ncc3cc(Br)c(=O)n(C4CCCC4)c3n2)nc1 [Example 14] | 260 | – |
| Cc1c(Br)c(=O)n(C2CCCC2)c2nc(Nc3ccc(N4CCC(O)CC4)cn3)ncc12 [Example 75, 6-Bromo-8-cyclopentyl-2-(4-hydroxy-3,4,5,6-tetrahydro-2H-[1,3′]bipyridinyl-6′-ylamino)-5-methyl-8H-pyrido[2,3-d]pyrimidin-7-one] | 74 | > 5000 |
| Cc1c(Br)c(=O)n(C2CCCC2)c2nc(Nc3ccc(N4CC(C)NC(C)C4)cn3)ncc12 (stereo not drawn) [Example 93, 6-Bromo-8-cyclopentyl-2-[5-(3,5-dimethyl-piperazin-1-yl)-pyridin-2-ylamino]-5-methyl-8H-pyrido[2,3-d]pyrimidin-7-one] | 63 | > 5000 |

Second part, the compound after the results:

| IC50 (Cdk4/Cyclin D) [nM] | IC50 [1] [nM] | Compound |
| --- | --- | --- |
| 175 | – | CN1CCC[C@H]1c1ccc(Nc2ncc3cc(Br)c(=O)n(C4CCCC4)c3n2)nc1 [Example 12, 6-Bromo-8-cyclopentyl-2-[5-((S)-1-methyl-1-pyrrolidin-2-yl)-pyridin-2-ylamino]-8H-pyrido[2,3-d]pyrimidin-7-one hydrochloride] |
| 595 | – | CCOC(=O)c1cc2cnc(Nc3ccc(N4CCNCC4)cn3)nc2n(C2CCCC2)c1=O [Example 7, 8-Cyclopentyl-7-oxo-2-(5-piperazin-1-yl-pyridin-2-ylamino)-7,8-dihydro-pyrido[2,3-d]pyrimidine-6-carboxylic acid ethyl ester hydrochloride] |
| 920 | 4470 | O=c1ccc2cnc(Nc3ccc(N4CCNCC4)cn3)nc2n1C1CC1 [Example 64, 8-cyclopropyl-2-(5-piperazin-1-yl-pyridin-2-ylamino)-8H-pyrido[2,3-d]pyrimidin-7-one] |
| 160 | > 5000 | Cc1c(Br)c(=O)n(C2CCCC2)c2nc(Nc3ccc(N4CCNCC4)cn3)ncc12 [Example 15, 6-Bromo-8-cyclopentyl-5-methyl-2-(5-piperizin-1-yl-pyridin-2-ylamino)-8H-pyrido[2,3-d]pyrimidin-7-one] |
| 4 | > 5000 | CC(=O)c1c(C)c2cnc(Nc3ccc(N4CCOCC4)cn3)nc2n(C2CCCC2)c1=O [Example 100, 6-Acetyl-8-cyclopentyl-5-methyl-2-(5-morpholin-4-yl-pyridin-2-ylamino)-8H-pyrido[2,3-d]pyrimidin-7-one] |
| 18 | > 5000 | CCOCc1cc2cnc(Nc3ccc(N4CCNCC4)cn3)nc2n(C2CCCC2)c1=O [Example 116, 8-Cyclopentyl-6-ethoxymethyl-2-(5-piperazin-1-yl-pyridin-2-ylamino)-8H-pyrido[2,3-d]pyrimidin-7-one] |
| 37 | > 5000 | CC(=O)c1c(C)c2cnc(Nc3ccc(N4CC(C)NC(C)C4)cn3)nc2n(C2CCCC2)c1=O (stereo not drawn) [Example 95, 6-Acetyl-8-cyclopentyl-2-[5-(3,5-dimethyl-piperazin-1-yl)-pyridin-2-ylamino]-5-methyl-8H-pyrido[2,3-d]pyrimidin-7-one] |
| > 5000 | – | O=c1c(Br)cc2cnc(Nc3ccccn3)nc2n1C1CCCCC1 [Example 13, 6-Bromo-8-cyclohexyl-2-(pyridin-2-yl-amino)-8H-pyrido[2,3-d]pyrimidin-7-one] |
| 5 | – | CC(=O)c1c(C)c2cnc(Nc3ccc(N4CCCCC4)cn3)nc2n(C2CCCC2)c1=O [Example 105, 6-Acetyl-8-cyclopentyl-5-methyl-2-(3,4,5,6-tetrahydro-2H-[1,3′]bipyridinyl-6′-ylamino)-8H-pyrido[2,3-d]pyrimidin-7-one] |
| 5 | – | CC(=O)c1c(C)c2cnc(Nc3ccc(N4CCN(C)CC4)cn3)nc2n(C2CCCC2)c1=O [Example 72, 6-Acetyl-8-cyclopentyl-5-methyl-2-[5-(4-methyl-piperazin-1-yl)-pyridin-2-ylamino]-8H-pyrido[2,3-d]pyrimidin-7-one] |
| 51 | – | O=c1c(F)cc2cnc(Nc3ccc(N4CCNCC4)cn3)nc2n1C1CCCC1 [Example 18, 8-Cyclopentyl-6-fluoro-2-(5-piperazin-1-yl-pyridin-2-ylamino)-8H-pyrido[2,3-d]pyrimidin-7-one hydrochloride] |
